From PubChem BioAssay (NCI) come the findings set out here.

Among the test systems are HL-60(TB) leukemia; SNB-19 CNS; NCI-H522 lung; CCRF-CEM leukemia; NCI-H23 lung; SF-268 CNS; MOLT-4 leukemia; HCT-116 colon.
Experiment in all cases: NCI-60 cell line screen, 48 h

Each structure is given as a SMILES string. In brackets after ≈: the same amount, converted by molar mass.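 1) Cells in 96-well plates. 2) Compound, 48 h, 5 concentrations. 3) Linear interpolation between surrounding doses. 4) Unreached endpoint = highest concentration. At the GI50, growth is halved. TGI denotes the concentration required for complete inhibition of growth.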 Where a SMILES comes first, the peptide text is derived from it. [ ]: non-standard residue; d: D form. The star is where a group is joined. ξ: configuration not given here. Boc = CC(C)(C)OC(=O)*; ξV = CC(C)C(N)C(=O)O; OBn = c1ccc(CO*)cc1 Some results are limits rather than exact numbers.

As for `O=c1cc(-c2ccc3c(c2)OCCO3)oc2cc(Cl)ccc12`, the GI50 was over 100 µM with HL-60(TB) leukemia; 3.62 µM in the assay on SNB-19 CNS; 2.97 µM in the assay on NCI-H522 lung; over 100 µM in the assay on CCRF-CEM leukemia; 5.67 µM in the assay on NCI-H23 lung; 3.37 µM in the assay on SF-268 CNS. Besides, the GI50 with MOLT-4 leukemia was over 100 µM. Besides, the TGI in the assay with HL-60(TB) leukemia, with SNB-19 CNS, in the assay on NCI-H522 lung, in the assay on CCRF-CEM leukemia, in the assay with NCI-H23 lung and with SF-268 CNS was over 100 µM each time. The molecule also displayed a TGI in the assay on MOLT-4 leukemia of over 100 µM.

As for `CC(C)C(NC(=O)CNC(=O)OC(C)(C)C)C(=O)NCC(=O)OCc1ccccc1` (stereo not drawn) (Boc-Gly-[ξV]-Gly-OBn), in the assay on HCT-116 colon, the GI50 is 27.3 µg/mL (≈ 64.9 µM) and the TGI stood at 98.5 µg/mL (≈ 234 µM).
